How the values were obtained:
human AChE (hAChE) = biological target: T1, human AChE (hAChE) (Homo sapiens, UniProt P22303); test: hAChE inhibition, modified Ellman's method; format: biochemical; conditions: read-out: % of AChE inhibition
T1 construct: made in house
Experimental: (§1) N-Methylpropargylamine-quinazolines were tested for their inhibitory potency against human AChE (hAChE) and human BChE (hBChE) enzymes using the modified spectrophotometric method of Ellman et al..
(§2) The human recombinant BChE and AChE were prepared at the Department of Toxicology and Military Pharmacy (Faculty of Military Health Sciences, Hradec Kralove, Czech Republic). 5,5′-dithiobis(2-nitrobenzoic acid) (Ellman’s reagent, DTNB), phosphate buffer (PB, pH 7.4), acetylthiocholine (ATC) and butyrylthiocholine (BTC), were purchased from Sigma-Aldrich, Prague, Czech Republic. For measuring purposes, polystyrene Nunc 96-well microplates with a flat-bottom shape (ThermoFisher Scientific, Waltham, MA, USA) were utilized. All the assays were carried out in 0.1 M KH2PO4/K2HPO4 buffer, pH 7.4. Enzyme solutions were prepared at 2.0 units/mL in 2 mL aliquots. The assay medium consisted of a 0.1 M phosphate buffer (pH 7.4), 0.01 M DTNB, the enzyme, and 0.01 M substrate (ATC/BTC iodide solution). Concentration 1 µM was tested and the % of inhibition was calculated. Tested compounds were pre-incubated for 5 min. The reaction was started by immediate addition of 20 μL of the substrate. […] Each concentration was assayed in triplicate. Software GraphPad Prism 5 (San Diego, CA, USA) was used for the statistical data evaluation.

human BChE (hBChE) = biological target: T2, human BChE (hBChE) (Homo sapiens, UniProt P06276); test: hBChE inhibition, modified Ellman's method; format: biochemical; conditions: 10^-6 M
T2 construct: made in house
Experimental: as §1, §2

[1] = PAMPA prediction of BBB permeability; format: in vitro ADME
Experimental: The assay validation was performed using standard compounds whose CNS status is experimentally known from in vivo conditions.
PAMPA (the parallel artificial membrane-permeability assay) is a high-throughput screening tool applicable for prediction of the passive transport of potential drugs across the blood–brain barrier (BBB). In this study, it was used as a non-cell-based in vitro assay carried out in a coated 96-well membrane filter. The filter membrane of the donor plate was coated with PBL (Polar Brain Lipid, Avanti, USA) in dodecane (4 µL of 20 mg/mL PBL in dodecane) and the acceptor well was filled with 300 µL of PBS (pH 7.4; VA). The tested compounds were dissolved first in DMSO and subsequently diluted with PBS (pH 7.4) to final concentrations of 50–100 μM in the donor wells. […] About 300 µL of the donor solution was added to the donor wells (VD) and the donor filter plate was carefully put on the acceptor plate so that the coated membrane was “in touch” with both the donor solution and acceptor buffer. In principle, the test compound diffused from the donor well through the lipid membrane (Area = 0.28 cm^2) to the acceptor well. The concentration of the drug in both the donor and acceptor wells were assessed after 3, 4, 5, and 6 h of incubation in quadruplicate using the UV plate reader Spark (Tecan Group Ltd., Männedorf, Switzerland) at the maximum absorption wavelength of each compound. In addition, the solution of the theoretical compound concentration, simulating the equilibrium state established if the membrane were ideally permeable, was prepared and assessed as well.

SH-SY5Y cells = test: dehydrogenase activity, WST-1 test; format: cell-based, human; conditions: 100 µM, mean ± SD
Experimental: Next, we tested the effects of the compounds on intracellular dehydrogenase activity and glutathione levels. […] To evaluate the effects of the compounds on cells, we measured total intracellular dehydrogenase activity as a marker of cellular viability and glutathione levels for evaluation of oxidative stress (Table 6).
Dehydrogenase activity was evaluated by WST-1 test (Roche, Munich, Germany). The WST-1 test measures the activity of intra- and extra-mitochondrial dehydrogenases. […] The change of absorbance was measured by spectrophotometer at the wavelength of 440 nm using SPARK microplate reader (Tecan, Austria) while incubated at 37 °C. The dehydrogenase activity was expressed as the percentage of total cellular dehydrogenase activity relative to that in the control cells (control = 100%).

hMAO-B = biological target: T3, hMAO-B (Homo sapiens, UniProt P27338); test: in vitro inhibition of hMAO-B, kynuramine fluorescence assay; format: biochemical
T3 construct: purchased Merck (Prague, Czech Republic)
T3 sequence (P27338 1-520): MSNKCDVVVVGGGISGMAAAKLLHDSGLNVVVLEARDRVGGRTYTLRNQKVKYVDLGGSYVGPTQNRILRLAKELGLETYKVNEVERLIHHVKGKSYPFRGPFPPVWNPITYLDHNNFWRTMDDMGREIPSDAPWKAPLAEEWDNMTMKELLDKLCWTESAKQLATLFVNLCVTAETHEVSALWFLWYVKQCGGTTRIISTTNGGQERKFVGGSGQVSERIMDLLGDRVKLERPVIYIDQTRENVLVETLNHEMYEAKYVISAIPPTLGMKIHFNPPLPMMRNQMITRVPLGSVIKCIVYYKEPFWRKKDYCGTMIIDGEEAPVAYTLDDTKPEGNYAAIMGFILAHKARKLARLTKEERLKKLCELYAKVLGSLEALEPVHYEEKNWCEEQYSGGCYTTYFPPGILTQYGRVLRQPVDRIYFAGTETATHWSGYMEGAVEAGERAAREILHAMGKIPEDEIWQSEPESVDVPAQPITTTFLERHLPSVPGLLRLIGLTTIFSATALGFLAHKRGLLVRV
Experimental: The hMAO-A and hMAO-B enzymes were purchased from Merck (Prague, Czech Republic). […] The mixture was pre-incubated at 37 °C for 15 min and subsequently substrate kynuramine was added to the final concentration of 100 µM. The final volume of reaction mixture was 0.1 mL. The whole reaction mixture was incubated at 37 °C for 30 min. The reaction was stopped by the addition of 20 µL 4M NaOH.

GluN1/GluN2B receptor = biological target: T4, GluN1/GluN2B receptor (Homo sapiens, UniProt Q05586+Q13224); test: whole-cell patch-clamp on HEK293 cells expressing GluN1/GluN2B NMDAR; format: cell-based; conditions: HEK293, 10 µM, −60 mV, ± SEM (n = 5–6), 100% = full inhibition; read-out: Relative inhibition (RI) of GluN1/GluN2B NMDAR
T4 construct: expressed in transfected cells; host or cells: HEK293
Experimental: We tested the derivatives by the whole-cell patch-clamp method at a concentration of 10 μM under steady-state conditions in the presence of the saturating concentrations of NMDAR (co-)agonists (L-glutamate and glycine). […] Whole-cell patch-clamp recordings were performed using an Axopatch 200B amplifier (Molecular Devices, LLC., San Jose, CA, USA) at a holding membrane potential of −60 mV. HEK293 cells were co-transfected with DNA vectors encoding human versions of the GluN1-4a (GluN1) and GluN2B subunits and green fluorescent protein (GFP) in a 1:1:1 ratio using 0.9 μL PolyMag reagent (OZ Biosciences SAS, Marseille, France) in 50 μL Opti-MEM I [56, 57]. After 15 min on a magnetic plate, HEK293 cells were trypsinized and resuspended in Opti-MEM I medium containing 1% FBS, 2 mM MgCl2 and 3 mM kynurenic acid (to reduce cell death caused by activation of NMDARs). Electrophysiological measurements were performed 24–48 h after completion of transfection at room temperature. The extracellular recording solution (ECS) contained (in mM): 160 NaCl, 2.5 KCl, 10 HEPES, 10 D-glucose, 0.2 EDTA, and 0.7 CaCl2 (pH 7.3 with NaOH). […] A microprocessor-controlled rapid perfusion system with a time constant for solution exchange around the recorded cell of ~20 ms was used. Currents were low-pass filtered at 2 kHz using an eight-pole Bessel filter, digitized at 5 kHz, and recorded using the pCLAMP 10 program (Molecular Devices, LLC., San Jose, CA, USA). The co-agonist glycine (100 µM) was applied throughout the recording, and the agonist L-glutamate (1 mM) was used to elicit responses of GluN1/GluN2B receptors.

in vitro = conditions: human, undifferentiated SH-SY5Y cells
[2] = tested on: differentiated SH-SY5Y cells; test: MTT viability of differentiated SH-SY5Y; format: cell-based, human; conditions: concentration equal to IC50 from undifferentiated model, 24 h
Experimental: Then, the differentiated SH-SY5Y cells were treated with concentrations corresponding to the IC50 values obtained from the cytotoxicity measurement using undifferentiated SH-SY5Y cells. Cells were exposed to a tested compound for 24 h. Then, the medium was replaced by a medium containing 10 μM of MTT and cells were allowed to produce formazan for another, approximately 3 h under surveillance. Thereafter, the medium was aspirated and purple crystals of MTT formazan were dissolved in 100 μL DMSO under shaking. Cell viability was assessed spectrophotometrically by the amount of formazan produced. Absorbance was measured at 570 nm with 650 nm reference wavelength on Spark (Tecan Group Ltd., Männedorf, Switzerland). The IC50 value was then calculated from the control-subtracted triplicates using non-linear regression (four parameters) of GraphPad Prism 9 software. Final IC50 and SEM values were obtained as a mean of three.

T1 sequence (P22303 32-614): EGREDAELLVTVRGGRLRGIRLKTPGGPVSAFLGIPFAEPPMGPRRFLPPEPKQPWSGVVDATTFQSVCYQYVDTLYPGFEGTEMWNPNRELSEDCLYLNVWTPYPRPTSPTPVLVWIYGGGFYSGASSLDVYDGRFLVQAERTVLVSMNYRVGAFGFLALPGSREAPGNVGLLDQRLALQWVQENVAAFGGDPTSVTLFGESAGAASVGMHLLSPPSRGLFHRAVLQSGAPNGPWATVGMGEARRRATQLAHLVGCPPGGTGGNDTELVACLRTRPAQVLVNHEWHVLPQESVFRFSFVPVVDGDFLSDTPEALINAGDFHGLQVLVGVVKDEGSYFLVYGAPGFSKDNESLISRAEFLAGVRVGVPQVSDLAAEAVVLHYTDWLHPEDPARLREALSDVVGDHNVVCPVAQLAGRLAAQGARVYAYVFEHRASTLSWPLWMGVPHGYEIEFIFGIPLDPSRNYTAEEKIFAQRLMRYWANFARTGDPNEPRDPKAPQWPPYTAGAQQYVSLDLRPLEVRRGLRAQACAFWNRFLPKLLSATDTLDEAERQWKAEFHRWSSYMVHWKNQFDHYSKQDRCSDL
T4 sequence (Q13224 27-1484, other chains not shown): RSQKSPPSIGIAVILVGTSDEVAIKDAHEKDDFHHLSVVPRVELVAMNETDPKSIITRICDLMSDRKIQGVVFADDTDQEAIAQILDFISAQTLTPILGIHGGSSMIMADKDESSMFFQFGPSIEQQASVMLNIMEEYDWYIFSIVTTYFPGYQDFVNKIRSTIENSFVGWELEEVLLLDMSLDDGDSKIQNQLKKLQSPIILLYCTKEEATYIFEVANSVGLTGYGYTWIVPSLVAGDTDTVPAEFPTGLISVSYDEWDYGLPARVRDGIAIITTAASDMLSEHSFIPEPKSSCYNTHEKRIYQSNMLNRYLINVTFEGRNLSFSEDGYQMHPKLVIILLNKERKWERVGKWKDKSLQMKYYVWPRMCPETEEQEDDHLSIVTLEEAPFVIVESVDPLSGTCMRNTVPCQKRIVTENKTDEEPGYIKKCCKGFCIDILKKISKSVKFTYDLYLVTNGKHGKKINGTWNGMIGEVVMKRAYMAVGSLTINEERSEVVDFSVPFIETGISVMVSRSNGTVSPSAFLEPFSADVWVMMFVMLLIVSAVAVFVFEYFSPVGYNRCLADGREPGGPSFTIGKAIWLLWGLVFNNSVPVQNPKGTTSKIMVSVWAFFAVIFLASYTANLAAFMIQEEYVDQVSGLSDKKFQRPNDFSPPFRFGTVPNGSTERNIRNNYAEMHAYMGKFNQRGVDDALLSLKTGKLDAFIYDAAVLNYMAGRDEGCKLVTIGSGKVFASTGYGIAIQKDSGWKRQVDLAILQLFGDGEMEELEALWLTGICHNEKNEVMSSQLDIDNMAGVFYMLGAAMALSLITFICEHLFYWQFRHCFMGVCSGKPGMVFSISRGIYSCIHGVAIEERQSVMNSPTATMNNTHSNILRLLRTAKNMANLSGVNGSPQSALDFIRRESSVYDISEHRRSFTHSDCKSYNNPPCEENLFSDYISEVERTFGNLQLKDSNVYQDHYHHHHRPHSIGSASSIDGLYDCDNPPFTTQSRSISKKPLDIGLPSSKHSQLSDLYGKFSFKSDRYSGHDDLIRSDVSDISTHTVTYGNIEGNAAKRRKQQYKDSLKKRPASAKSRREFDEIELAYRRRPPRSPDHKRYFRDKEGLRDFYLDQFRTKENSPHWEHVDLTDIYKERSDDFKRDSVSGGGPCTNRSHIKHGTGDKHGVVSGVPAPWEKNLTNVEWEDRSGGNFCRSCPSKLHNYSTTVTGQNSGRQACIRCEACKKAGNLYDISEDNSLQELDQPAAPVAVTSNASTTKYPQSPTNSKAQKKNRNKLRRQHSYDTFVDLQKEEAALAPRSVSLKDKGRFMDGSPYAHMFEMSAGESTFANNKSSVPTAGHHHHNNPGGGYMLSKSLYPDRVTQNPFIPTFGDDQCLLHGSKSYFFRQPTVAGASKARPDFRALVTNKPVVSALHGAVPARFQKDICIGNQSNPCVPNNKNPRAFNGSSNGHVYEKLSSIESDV
T2 sequence (P06276 29-602): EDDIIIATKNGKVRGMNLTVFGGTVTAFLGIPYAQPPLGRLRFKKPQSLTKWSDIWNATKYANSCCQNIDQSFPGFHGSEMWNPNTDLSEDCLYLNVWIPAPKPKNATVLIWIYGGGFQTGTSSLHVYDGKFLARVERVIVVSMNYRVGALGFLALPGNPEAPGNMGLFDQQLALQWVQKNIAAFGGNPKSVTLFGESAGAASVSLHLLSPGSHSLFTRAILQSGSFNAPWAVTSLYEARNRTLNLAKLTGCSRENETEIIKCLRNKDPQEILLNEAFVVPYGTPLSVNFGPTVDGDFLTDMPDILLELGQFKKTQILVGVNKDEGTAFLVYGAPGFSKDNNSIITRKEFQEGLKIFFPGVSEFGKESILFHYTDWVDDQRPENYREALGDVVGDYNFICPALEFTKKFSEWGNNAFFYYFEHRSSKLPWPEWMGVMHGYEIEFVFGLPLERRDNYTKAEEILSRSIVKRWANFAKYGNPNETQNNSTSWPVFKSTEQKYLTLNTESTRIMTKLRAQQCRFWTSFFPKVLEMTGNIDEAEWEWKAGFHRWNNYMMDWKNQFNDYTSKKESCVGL

Which inhibition at 1 µM (human AChE (hAChE)) does the source give for `C#CCN(C)c1nc(NCCCC)c2ccc(Cl)cc2n1` [II-6e, N4-butyl-7-chloro-N2-methyl-N2-(prop-2-yn-1-yl)quinazoline-2,4-diamine] here?
Its inhibition at 1 µM is 9%.

What about the inhibition at 1 µM (human BChE (hBChE)) of the same molecule?
Its inhibition at 1 µM is 0%.

What about the “BBB penetration by PAMPA (in words)” value [1] of the same molecule?
Its value is “did not penetrate the artificial barrier”.

And the “CNS (+/−)” value ([1]; PAMPA class)?
Its value is “CNS (−) (CNS (−) (low BBB permeation predicted): Pe (×10^−6 cm s^−1) < 2.0)”.

And the Papp ([1]; PAMPA, PBS pH 7.4, read-out: Pe ± SEM)?
The Papp was 0.9 ± 0.43 ×10⁻⁶ cm/s.

And the “Dehydrogenase Activity (% of Control)” value (SH-SY5Y cells; 6 h)?
The value was 63 ± 9 % of Control.

What about the “Dehydrogenase Activity (% of Control)” value (SH-SY5Y cells; 24 h) of the same molecule?
The value was 48 ± 9 % of Control.

What about the IC50 (hMAO-B) of the same molecule?
The IC50 was 3.65 ± 0.14 µM.

What about the “selectivity profile hMAO-A vs hMAO-B (in words)” value (hMAO-B) of the same molecule?
Its value is “hMAO-B selective inhibitors”.

What about the inhibition at 10 µM (GluN1/GluN2B receptor) of the same molecule?
Its inhibition at 10 µM is 33.8 ± 2.56%.

What about the IC50 at 24 h (in vitro) of the same molecule?
Its IC50 at 24 h is 67.1 ± 3.81 µM.

And the “effect on viability of differentiated SH-SY5Y (in words)” value [2]?
Its value is “increased toxicity”.

Reference: PMC10252614 (International Journal of Molecular Sciences, 2023)
